Like-named read-outs stand apart in the source and are kept apart here.
Test system: epithelial carcinoma A431 cell line
Test: MTT Cell Proliferation Assay, A431 cells
Assay type: cell-based
Settings: for IC50: Homo sapiens, A-431, Table 11
Summary of the method: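 Each concentration ran in quadruplicate across duplicate plates, with compounds serially diluted in DMSO and delivered at 0.5% DMSO in 0.5% FBS medium for 3 days.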

| SMILES | IC50 (first of x/y(ratio): A431, unit inferred, read-out: MTT Follow-up (first value)) | IC50 (first of x/y(ratio): A431, unit not printed (doses in μM), read-out: MTT Screen (first value)) | activity in A431 (standard at 23.5 μM final concentration) | activity in A431 (standard at 31.125 μM final concentration) | MTT assay (first value) (Table 10, first of x/y(ratio): A431, three day treatment, unit not printed (doses in μM)) |
| --- | --- | --- | --- | --- | --- |
| CCc1cc2c(CN3CCN(Cc4ccc5c(c4)OCO5)CC3)cc(=O)oc2cc1O [AD4-1734] | 22.1 µM | 22.8 µM | less than 100% | 100% |  |
| Cc1cc(C)cc(NS(=O)(=O)c2ccc(NC(=S)Nc3ccccc3)cc2)c1 [AD4-11091] |  |  |  |  | non-convergent |

Source: patent US20140179681A1, “METHODS AND COMPOSITIONS OF TARGETED DRUG DEVELOPMENT” (priority 2010, published 2014)
